SMILES strings stand for the structures.

As usually defined, the IC50 is the concentration at which inhibition is half-maximal. A high value points to weaker potency in that assay.

The target in assay [1] is T1, Neuraminidase (Influenza A virus, UniProt B4URF0). Briefly: Noncompetitive inhibition of Influenza A H1N1 virus neuraminidase activity by Lineweaver-Burk plot analysis.
Assay [2] addresses T1, Neuraminidase. Briefly: Inhibition of Influenza A H9N2 virus neuraminidase activity after 2 hrs by spectrofluorometry.
Assay [3] concerns the target T1, Neuraminidase. Briefly: Inhibition of Influenza A H1N1 virus neuraminidase activity after 2 hrs by spectrofluorometry.
The target in another assay is T2, Sialidase (Clostridium perfringens, UniProt P10481).
T2 sequence (P10481 whole entry): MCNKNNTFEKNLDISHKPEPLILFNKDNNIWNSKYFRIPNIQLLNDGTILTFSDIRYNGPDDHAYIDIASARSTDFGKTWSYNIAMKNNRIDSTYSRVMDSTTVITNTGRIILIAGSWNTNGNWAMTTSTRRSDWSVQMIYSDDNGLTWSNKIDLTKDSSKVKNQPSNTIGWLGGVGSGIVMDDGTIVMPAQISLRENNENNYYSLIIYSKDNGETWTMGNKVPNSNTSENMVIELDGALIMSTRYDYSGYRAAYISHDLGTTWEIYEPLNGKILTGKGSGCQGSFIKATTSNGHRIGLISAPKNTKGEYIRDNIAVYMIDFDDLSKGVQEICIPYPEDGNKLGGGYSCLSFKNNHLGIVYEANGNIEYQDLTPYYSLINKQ
Briefly: Inhibition of Clostridium perfringens neuraminidase.

For assay [4], the target named is T1, Neuraminidase. The format is cell-based, H1N1 swine influenza virus, HEK-293T.

As to `C=CC(C)(C)c1cc(/C=C/C(=O)c2ccc(O)cc2O)c(OC)cc1O` [LICOCHALCONE G], the half-inhibitory concentration (IC50) was 117 µM at Neuraminidase [1], 119 µM against Neuraminidase [2], 106 µM against Neuraminidase [3] and 2.37 µM against Sialidase.

In the case of `O=C(/C=C/c1ccc(O)cc1)c1ccc(O)cc1O` [ISOLIQUIRITIGENIN], half-maximal inhibition against Sialidase (IC50) required 44 µM.

For `CC(C)=CCc1cc(/C=C/C(=O)c2ccc(O)cc2O)cc(O)c1O` [5'-PRENYLBUTEIN], the concentration for half-maximal inhibition (IC50) is 96.3 µM on Neuraminidase [1], 104 µM on Neuraminidase [2], 76 µM on Neuraminidase [3] and 9.25 µM at Sialidase.

As to `COc1c(/C=C/C(=O)c2ccc(O)c(CC=C(C)C)c2)ccc(O)c1O` [LICOCHALCONE D], the half-maximal inhibitory concentration (IC50) is 103 µM at Neuraminidase [1], 99.4 µM against Neuraminidase [2], 80.8 µM against Neuraminidase [3] and 3.33 µM against Sialidase.

With `CC(C)=CCc1cc(/C=C/C(=O)c2ccc(O)c(CC=C(C)C)c2O)ccc1O` [KANZONOL C], the IC50 at Neuraminidase [1] is 212 µM; against Neuraminidase [2], 135 µM; at Neuraminidase [3] it was 192 µM; on Sialidase, 1.12 µM.

With `C=CC(C)(C)c1cc(/C=C/C(=O)c2ccc(O)cc2)c(OC)cc1O` [LICOAGROCHACONE A], the IC50 at Neuraminidase [1] is 53.9 µM; against Neuraminidase [2], 53.1 µM; on Neuraminidase [4], 16 µM; at Neuraminidase [3], 56.4 µM; against Sialidase it was 20.4 µM.

`COc1cc(O)ccc1/C=C/C(=O)c1ccc(O)cc1` [ECHINATIN]: the IC50 on Neuraminidase [1] was 30.4 µM; against Neuraminidase [2] it was 21.1 µM; against Neuraminidase [4] it was 9.21 µM; on Neuraminidase [3], 21.5 µM.

Take `CC(C)=CCc1cc(/C=C/C(=O)c2ccc(O)cc2O)ccc1O` [LICOAGROCHALCONE A]: the IC50 on Neuraminidase [1] was 185 µM; at Neuraminidase [2] it was 175 µM; at Neuraminidase [3], 159 µM; against Sialidase, 1.6 µM.

The record behind these values is ChEMBL document CHEMBL1641552 (Bioorg Med Chem Lett, 2011).
